Measurements published in ChEMBL document CHEMBL2401712, “Fused thiazolyl alkynes as potent mGlu5 receptor positive allosteric modulators” (Bioorg Med Chem Lett, 2013).

How the values were obtained:
[1] = test system: Liver microsomes; assay: Metabolic stability in human liver microsomes assessed as GSH adduct formation after 60 mins by LC-MS/MS analysis; format: ADME, Microsome; conditions: 1 h
[2] = molecular target: CYP3A4 (Homo sapiens, UniProt P08684); assay: Inhibition of CYP3A4 (unknown origin) at 5 uM relative to control; format: ADME
Chain of CYP3A4 (P08684 whole entry): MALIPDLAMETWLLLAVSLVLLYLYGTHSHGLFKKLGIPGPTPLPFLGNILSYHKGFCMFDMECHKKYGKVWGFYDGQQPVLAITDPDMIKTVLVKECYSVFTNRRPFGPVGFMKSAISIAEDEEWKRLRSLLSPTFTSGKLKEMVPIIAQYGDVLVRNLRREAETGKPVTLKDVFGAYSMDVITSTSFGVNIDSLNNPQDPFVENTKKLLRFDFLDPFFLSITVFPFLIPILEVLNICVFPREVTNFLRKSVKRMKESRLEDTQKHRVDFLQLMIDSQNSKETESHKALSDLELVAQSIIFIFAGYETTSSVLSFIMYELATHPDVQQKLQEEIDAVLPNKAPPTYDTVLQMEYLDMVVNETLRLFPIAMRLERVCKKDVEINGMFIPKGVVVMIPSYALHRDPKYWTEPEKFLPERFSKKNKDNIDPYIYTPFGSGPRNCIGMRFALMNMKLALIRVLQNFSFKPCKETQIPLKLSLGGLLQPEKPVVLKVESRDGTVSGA

[3] = molecular target: CYP2D6 (Homo sapiens, UniProt P10635); assay: Inhibition of CYP2D6 (unknown origin) at 5 uM relative to control; format: ADME
Chain of CYP2D6 (P10635 whole entry): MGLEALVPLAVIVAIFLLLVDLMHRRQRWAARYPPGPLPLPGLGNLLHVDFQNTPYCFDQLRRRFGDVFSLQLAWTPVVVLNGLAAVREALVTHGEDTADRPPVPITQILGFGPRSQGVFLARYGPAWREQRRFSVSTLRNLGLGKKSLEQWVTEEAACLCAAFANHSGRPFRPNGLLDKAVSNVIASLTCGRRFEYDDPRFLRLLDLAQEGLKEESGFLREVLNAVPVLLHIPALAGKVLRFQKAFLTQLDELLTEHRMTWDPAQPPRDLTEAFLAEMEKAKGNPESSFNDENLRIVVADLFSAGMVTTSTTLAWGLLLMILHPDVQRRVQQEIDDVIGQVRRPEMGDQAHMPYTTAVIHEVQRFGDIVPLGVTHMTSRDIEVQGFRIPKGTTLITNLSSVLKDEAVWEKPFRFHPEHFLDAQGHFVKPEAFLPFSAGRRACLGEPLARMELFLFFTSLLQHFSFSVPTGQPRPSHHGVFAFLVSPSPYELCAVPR

[4] = Plasma protein binding in human; format: ADME, cell-free; conditions: read-out: PPB (converted)
[5] = Plasma protein binding in rat; format: ADME, cell-free; conditions: read-out: PPB (converted)
[6] = test system: Liver microsomes; assay: Intrinsic clearance in rat liver microsomes; format: ADME, Microsome
[7] = test system: Liver microsomes; assay: Intrinsic clearance in human liver microsomes; format: ADME, Microsome; parameters: unit not given here
[8] = molecular target: T1, Metabotropic glutamate receptor 5 (Homo sapiens, UniProt P41594); assay: Negative allosteric modulation of human mGlu5 receptor expressed in HEK293 cells assessed as inhibition of L-glutamate-induced activity after 1 hr by FLIPR assay; format: cell-based
Target sequence in this assay (P41594 whole entry): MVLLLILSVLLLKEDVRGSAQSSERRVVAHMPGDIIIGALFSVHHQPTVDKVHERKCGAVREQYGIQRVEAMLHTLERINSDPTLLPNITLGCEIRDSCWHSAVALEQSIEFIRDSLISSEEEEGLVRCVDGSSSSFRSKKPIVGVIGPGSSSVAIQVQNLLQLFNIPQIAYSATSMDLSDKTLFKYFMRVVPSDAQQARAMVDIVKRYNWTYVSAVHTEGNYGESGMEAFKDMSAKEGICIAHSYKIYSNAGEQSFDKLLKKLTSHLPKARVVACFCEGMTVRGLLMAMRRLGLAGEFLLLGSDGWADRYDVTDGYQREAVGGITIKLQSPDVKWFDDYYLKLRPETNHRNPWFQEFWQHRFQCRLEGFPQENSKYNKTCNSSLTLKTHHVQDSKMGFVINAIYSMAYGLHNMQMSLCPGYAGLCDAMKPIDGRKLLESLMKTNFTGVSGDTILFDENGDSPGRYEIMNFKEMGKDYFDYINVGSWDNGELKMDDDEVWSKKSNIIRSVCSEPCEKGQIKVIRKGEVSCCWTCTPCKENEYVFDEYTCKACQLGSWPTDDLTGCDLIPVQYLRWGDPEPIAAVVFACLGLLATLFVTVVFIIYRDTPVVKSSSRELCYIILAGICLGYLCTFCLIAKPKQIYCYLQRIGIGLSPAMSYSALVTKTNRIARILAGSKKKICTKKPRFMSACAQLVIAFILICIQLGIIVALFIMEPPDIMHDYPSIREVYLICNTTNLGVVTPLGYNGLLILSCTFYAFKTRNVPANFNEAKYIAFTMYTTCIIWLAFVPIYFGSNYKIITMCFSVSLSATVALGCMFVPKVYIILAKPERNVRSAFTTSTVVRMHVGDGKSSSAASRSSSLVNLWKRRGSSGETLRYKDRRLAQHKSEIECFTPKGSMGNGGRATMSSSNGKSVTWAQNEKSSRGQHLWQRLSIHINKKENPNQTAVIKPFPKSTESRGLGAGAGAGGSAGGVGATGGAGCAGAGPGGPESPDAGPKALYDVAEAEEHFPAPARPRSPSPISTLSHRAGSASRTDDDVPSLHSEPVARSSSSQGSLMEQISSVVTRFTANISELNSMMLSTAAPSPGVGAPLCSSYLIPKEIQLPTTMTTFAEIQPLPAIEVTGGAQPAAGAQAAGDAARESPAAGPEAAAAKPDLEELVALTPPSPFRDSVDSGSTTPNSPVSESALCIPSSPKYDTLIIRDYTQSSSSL

[9] = molecular target: T1, Metabotropic glutamate receptor 5; assay: Positive allosteric modulation of human mGlu5 receptor expressed in HEK293 cells assessed as potentiation of L-glutamate-induced activity after 1 hr by FLIPR assay relative to control; format: cell-based
Target sequence in this assay (P41594 21-1212 limits assumed): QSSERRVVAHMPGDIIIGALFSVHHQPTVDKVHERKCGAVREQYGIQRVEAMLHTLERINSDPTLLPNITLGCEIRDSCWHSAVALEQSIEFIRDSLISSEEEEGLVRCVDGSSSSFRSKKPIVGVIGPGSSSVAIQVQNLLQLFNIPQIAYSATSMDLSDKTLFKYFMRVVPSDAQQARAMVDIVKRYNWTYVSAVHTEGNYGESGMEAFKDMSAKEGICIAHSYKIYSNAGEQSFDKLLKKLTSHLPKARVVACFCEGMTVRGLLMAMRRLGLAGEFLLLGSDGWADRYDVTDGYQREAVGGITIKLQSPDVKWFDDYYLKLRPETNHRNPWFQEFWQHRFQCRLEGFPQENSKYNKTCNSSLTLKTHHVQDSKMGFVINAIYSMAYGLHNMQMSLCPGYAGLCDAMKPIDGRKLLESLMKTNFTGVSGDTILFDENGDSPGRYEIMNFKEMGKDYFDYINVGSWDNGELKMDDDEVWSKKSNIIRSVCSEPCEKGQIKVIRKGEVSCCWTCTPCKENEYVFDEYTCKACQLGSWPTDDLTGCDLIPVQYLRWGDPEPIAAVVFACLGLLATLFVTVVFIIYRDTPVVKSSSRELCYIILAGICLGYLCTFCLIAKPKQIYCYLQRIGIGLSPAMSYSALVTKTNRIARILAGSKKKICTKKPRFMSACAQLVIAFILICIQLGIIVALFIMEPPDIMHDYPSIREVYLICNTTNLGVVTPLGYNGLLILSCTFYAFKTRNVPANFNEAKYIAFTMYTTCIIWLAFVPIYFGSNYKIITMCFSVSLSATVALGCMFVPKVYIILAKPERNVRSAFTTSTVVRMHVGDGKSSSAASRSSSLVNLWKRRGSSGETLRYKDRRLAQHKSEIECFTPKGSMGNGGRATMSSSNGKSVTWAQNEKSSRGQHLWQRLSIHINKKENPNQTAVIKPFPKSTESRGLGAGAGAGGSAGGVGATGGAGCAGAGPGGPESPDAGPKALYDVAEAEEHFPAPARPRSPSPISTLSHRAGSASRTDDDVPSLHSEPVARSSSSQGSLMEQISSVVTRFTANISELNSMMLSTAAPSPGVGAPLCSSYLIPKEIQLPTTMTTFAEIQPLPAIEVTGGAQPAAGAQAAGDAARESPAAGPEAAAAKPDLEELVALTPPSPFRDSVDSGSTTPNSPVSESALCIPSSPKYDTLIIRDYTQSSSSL

[10] = molecular target: T1, Metabotropic glutamate receptor 5; assay: Positive allosteric modulation of human mGlu5 receptor expressed in HEK293 cells assessed as potentiation of L-glutamate-induced activity after 1 hr by FLIPR assay; format: cell-based
Target sequence in this assay (P41594 whole entry): as the sequence (P41594 whole entry) above

[11] = molecular target: T1, Metabotropic glutamate receptor 5; assay: Positive allosteric modulation of mGlu5 receptor (unknown origin) relative to control
Target sequence in this assay (P41594 21-1212 limits assumed): as the sequence (P41594 21-1212 limits assumed) above

[12] = molecular target: T1, Metabotropic glutamate receptor 5; assay: Positive allosteric modulation of mGlu5 receptor (unknown origin)
Target sequence in this assay (P41594 whole entry): as the sequence (P41594 whole entry) above

[13] = molecular target: T1, Metabotropic glutamate receptor 5; assay: Negative allosteric modulation of human mGlu5 receptor expressed in HEK293 cells assessed as inhibition of L-glutamate-induced activity after 1 hr by FLIPR assay relative to control; format: cell-based; parameters: concentration or dose not given beside the values; conditions: concentration not given here
Target sequence in this assay (P41594 21-1212 limits assumed): as the sequence (P41594 21-1212 limits assumed) above

Compound	Stability [1]	inhibition at 5 µM [2] [%]	inhibition at 5 µM [3] [%]	fraction unbound [4]	fraction unbound [5]	CLH [6] [mL/min]	CLH [7]	IC50 [8] [nM]	Emax [9] [%]	EC50 [10] [nM]	Emax [11] [%]	EC50 [12] [nM]	inhibition [13] [%]
CN1CCc2nc(C#Cc3ccccc3)sc2C1=O	Unstable	< 40	< 40	0.033	0.049	52	3.1	> 10000	180	2.4			
CN1CCc2nc(C#Cc3ccccc3)sc2C1	Stable	< 40	< 40	0.035	0.061	88	4.9	> 10000	110	34			
O=C(c1cnc(C#Cc2ccccc2)s1)N1CCCCC1	Unstable										167	6.1	
O=C(C1CC(F)(F)C1)N1CCc2nc(C#Cc3ccccc3)sc2C1	Stable	< 40	< 40	0.011	0.012	7.6	1.1	> 10000	89	18			52
O=C(N1CCC(F)(F)CC1)N1CCc2nc(C#Cc3ccccc3)sc2C1								> 10000	100	72			3
N#Cc1cccc(C(=O)N2CCc3nc(C#Cc4ccccc4)sc3C2)c1								> 10000	150	71			16
COc1cccc(C(=O)N2CCc3nc(C#Cc4ccccc4)sc3C2)c1								> 10000	150	29			6.7
O=C(N1CCc2nc(C#Cc3ccccc3)sc2C1)N1CCC(F)(F)C1								> 10000	170	53			26
Cc1cccc(C(=O)N2CCc3nc(C#Cc4ccccc4)sc3C2)n1								> 10000	120	160			19
O=C(N1CCCC1)N1CCc2nc(C#Cc3ccccc3)sc2C1		< 40	< 40	0.024	0.047	49	1	> 10000	180	9.8			
O=C(C1CC12CCC2)N1CCc2nc(C#Cc3ccccc3)sc2C1 (stereo not drawn)								> 10000	95	3.9			10
O=C(N1CCc2nc(C#Cc3ccccc3)sc2C1)N1CC(F)C1								> 10000	27	> 10000			9
O=S(=O)(N1CCOCC1)N1CCc2nc(C#Cc3ccccc3)sc2C1								13	1.5	> 10000			89
O=C(c1cccc(Cl)c1)N1CCc2nc(C#Cc3ccccc3)sc2C1								> 10000	170	8.7			26
CC(C)S(=O)(=O)N1Cc2nc(C#Cc3ccccc3)sc2C1								140	-35	> 10000			74
O=C(C1CCC(F)(F)CC1)N1CCc2nc(C#Cc3ccccc3)sc2C1								> 10000	190	70			10
O=C(C1CCCCO1)N1CCc2nc(C#Cc3ccccc3)sc2C1 (stereo not drawn)								> 10000	100	320			35
CC1CCCC(C(=O)N2CCc3nc(C#Cc4ccccc4)sc3C2)C1 (stereo not drawn)								> 10000	260	100			20
O=C(C1CCCC1)N1CCc2nc(C#Cc3ccccc3)sc2C1								> 10000	280	19			42
O=C1c2sc(C#Cc3ccccc3)nc2CN1C1CC1								23	11	> 10000			59
